Read-outs that look alike come from different tables or passages of the source.
Tests used:
[1] = system: HCV replicon cells (replicon RNA level); assay: Cell-Based HCV Replicon Assay; settings: Hepatitis C virus, 72 h
Method in brief: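 Replicon cells at 5000/well received 10 serial 2-fold compound dilutions in 0.5% DMSO, 5% FBS, harvested day 3. Replicon RNA quantified by multiplex Taqman RT-PCR on NS5B versus GAPDH; EC50 and EC90 taken at ΔCT = 1 and 3.2 above baseline from sigmoid fits.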

[2] = target: T1, HCV NS5B polymerase (NS5BΔCT21, from HCV-Con 1 isolate, genotype 1b) (Hepatitis C virus genotype 1b, UniProt Q9WMX2); assay: HCV NS5B Polymerase Inhibition Assay; assay type: biochemical
T1 construct: A soluble C-terminal 21-amino acid truncated NS5B enzyme form; polyhistidine (C); made in house; host or cells: Escherichia coli
Method in brief: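 His-tagged NS5BΔCT21 (30 or 150 nM) with 0.03 μM DCoH75 RNA template, 0.25 mM GAU, 0.1 μM ATP/GTP/UTP, 0.026 μM CTP plus [^33P]-CTP, pH 7.3, 2% DMSO; 2 h at 22° C. Incorporated radioactivity counted after filter capture. IC50 from 10-point 2-fold dilutions (top 200 μM to 1 μM) fitted to Hill equation.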

[3] = replicon RNA level by real time PCR (Taqman), cells harvested on day 3, read-out: EC50
[4] = NS5B polymerase inhibition, [33P]-CTP incorporation, 22° C. for 2 hours, read-out: IC50

SMILES	EC50 [1, 3] [nM]	IC50 [2, 4] [nM]	EC50 [1] [nM]	IC50 [2] [nM]
NCc1ccc(Cn2c(C(=O)O)c(-c3ccc[nH]c3=O)c3c4occc4c(F)cc32)cc1 [Compound 82]	< 500	< 25	–	–
O=C(O)c1c(-c2ccc[nH]c2=O)c2c3occc3c(F)cc2n1Cc1ccccc1F [Compound 79]	< 500	< 25	–	–
NC(=O)c1cnc(F)c(Cn2c(C(=O)NS(=O)(=O)C3CC3)c(-c3ccc[nH]c3=O)c3c4c(c(F)cc32)CCO4)c1 [Compound 200]	< 500	< 25	–	–
O=C(O)c1c(-c2ccc[nH]c2=O)c2c3occc3c(F)cc2n1Cc1cc2nc[nH]c2cc1F [Compound 105]	< 500	< 25	–	–
Cc1ccccc1Cn1c(C(=O)NS(C)(=O)=O)c(-c2ccc[nH]c2=O)c2c3occc3ccc21 [Compound 61]	< 500	< 25	–	–
CC(C)S(=O)(=O)NC(=O)c1c(-c2ccc[nH]c2=O)c2c3occc3ccc2n1Cc1ccccc1F [Compound 64]	< 500	< 25	–	–
CS(=O)(=O)NC(=O)c1c(-c2ccc[nH]c2=O)c2c3occc3c(F)cc2n1Cc1ccc2[nH]c(C(F)(F)F)nc2c1 [Compound 208]	< 500	< 25	–	–
NC(=O)c1cc(Cn2c(C(=O)NS(=O)(=O)C3CC3)c(-c3ccc[nH]c3=O)c3c4c(c(F)cc32)CCO4)cs1 [Compound 185]	< 500	< 25	–	–
O=C(O)c1c(-c2ccc[nH]c2=O)c2c3occc3c(F)cc2n1Cc1nc2ccccc2[nH]c1=O [Compound 117]	< 500	< 25	–	–
CCc1coc2c1ccc1c2c(-c2ccc[nH]c2=O)c(C(=O)O)n1Cc1cc(F)ccc1F [Compound 24]	> 1500	> 100	–	–
CN(C)S(=O)(=O)NC(=O)c1c(-c2ccc[nH]c2=O)c2c3occc3c(F)cc2n1Cc1cc2ccccc2nc1Cl [Compound 215]	< 500	< 25	–	–
O=C(O)c1c(-c2ccc[nH]c2=O)c2c3occc3c(F)cc2n1Cc1cc(F)ccc1F [Compound 89]	< 500	< 25	–	–
CC1(C)COc2c1ccc1c2c(-c2ccc[nH]c2=O)c(C(=O)O)n1Cc1cc2ccccc2nc1Cl [Compound 231]	–	< 25	< 500	–
O=C(O)c1c(-c2ccc[nH]c2=O)c2c3occ(Cl)c3ccc2n1Cc1cc(F)ccc1F [Compound 46]	< 500	< 25	–	–
NC(=O)c1cccc(Cn2c(C(=O)O)c(-c3ccc[nH]c3=O)c3c4occc4c(F)cc32)c1 [Compound 92]	< 500	< 25	–	–
O=C(NS(=O)(=O)C1CC1)c1c(-c2ccc[nH]c2=O)c2c3occc3c(F)cc2n1Cc1cc([N+](=O)[O-])ccc1F [Compound 198]	< 500	< 25	–	–
O=C(NS(=O)(=O)C1CC1)c1c(-c2ccc[nH]c2=O)c2c3occc3c(F)cc2n1Cc1cc(C(O)CO)ccc1F (stereo not drawn) [Compound 207]	< 500	< 25	–	–
O=C(O)c1c(-c2ccc[nH]c2=O)c2c3occc3c(F)cc2n1Cc1cc2nc[nH]c2cc1Cl [Compound 120]	< 500	< 25	–	–
O=C(NS(=O)(=O)C1CC1)c1c(-c2ccc[nH]c2=O)c2c3occc3c(F)cc2n1Cc1ccc2[nH]c(=O)[nH]c2c1 [Compound 190]	< 500	< 25	–	–
Cc1cc2ccc3c(c(-c4ccc[nH]c4=O)c(C(=O)NS(C)(=O)=O)n3Cc3ccccc3F)c2o1 [Compound 132]	500 to 1500	25 to 100	–	–
CN(C)S(=O)(=O)NC(=O)c1c(-c2ccc[nH]c2=O)c2c3occc3ccc2n1Cc1cc2ccccc2nc1Cl [Compound 204]	< 500	< 25	–	–

SMILES	EC50 [1, 3] [nM]	IC50 [2, 4] [nM]	EC50 [1] [nM]	IC50 [2] [nM]
NC(=O)c1ncc(Cn2c(C(=O)O)c(-c3ccc[nH]c3=O)c3c4occc4c(F)cc32)s1 [Compound 98]	500 to 1500	25 to 100	–	–
O=C(NS(=O)(=O)C1CC1)c1c(-c2ccc[nH]c2=O)c2c3occc3c(F)cc2n1Cc1cc(F)ccc1F [Compound 177]	< 500	< 25	–	–
CC(C)S(=O)(=O)NC(=O)c1c(-c2ccc[nH]c2=O)c2c3occc3c(F)cc2n1Cc1csc(C(N)=O)c1 [Compound 186]	< 500	< 25	–	–
O=C(NC1CC1)c1ccc(F)c(Cn2c(C(=O)O)c(-c3ccc[nH]c3=O)c3c4occc4c(F)cc32)c1 [Compound 141]	> 1500	< 25	–	–
CC(C)(C)OC(=O)N(C(=O)OC(C)(C)C)c1cc(Cn2c(C(=O)NS(=O)(=O)C3CC3)c(-c3ccc[nH]c3=O)c3c4occc4c(F)cc32)c(F)cn1 [Compound 227]	< 500	> 100	–	–
O=C(O)c1c(-c2ccc[nH]c2=O)c2c3ccoc3ccc2n1Cc1cc(F)ccc1F [Compound 40]	> 1500	25 to 100	–	–
CC(C)n1ncc2cc(Cn3c(C(=O)O)c(-c4ccc[nH]c4=O)c4c5occc5c(F)cc43)c(Cl)nc21 [Compound 156]	500 to 1500	< 25	–	–
O=C(NS(=O)(=O)C1CC1)c1c(-c2ccc[nH]c2=O)c2c3occc3c(F)cc2n1Cc1ccc2[nH]c(C(F)(F)F)nc2c1 [Compound 222]	< 500	< 25	–	–
CS(=O)(=O)Nc1cccc(S(=O)(=O)NC(=O)c2c(-c3ccc[nH]c3=O)c3c4ccoc4ccc3n2Cc2ccc(F)cc2F)c1 [Compound 11]	> 1500	25 to 100	–	–
CC(C)(C)C(=O)OCn1cccc(-c2c(C(=O)O)n(Cc3cc4ccccc4nc3Cl)c3cc(F)c4ccoc4c23)c1=O [Compound 219]	< 500	> 100	–	–
Cc1ccc2nc(Cl)c(Cn3c(C(=O)O)c(-c4ccc[nH]c4=O)c4c5occc5c(F)cc43)cc2c1 [Compound 140]	< 500	< 25	–	–
Cc1cc2ccc3c(c(-c4ccc[nH]c4=O)c(C(=O)NS(C)(=O)=O)n3Cc3cc(F)ccc3F)c2o1 [Compound 147]	> 1500	< 25	–	–
CS(=O)(=O)NC(=O)c1c(-c2ccc[nH]c2=O)c2c3c(ccc2n1Cc1cc(F)ccc1F)CCO3 [Compound 59]	< 500	–	–	< 25
O=C(O)c1c(-c2ccc[nH]c2=O)c2c3occ(Cl)c3ccc2n1Cc1ccccc1F [Compound 45]	< 500	< 25	–	–
CS(=O)(=O)NC(=O)c1c(-c2ccc[nH]c2=O)c2c3c(ccc2n1Cc1cc(F)ccc1F)CCC3 [Compound 12]	500 to 1500	< 25	–	–
CC(C)S(=O)(=O)NC(=O)c1c(-c2ccc[nH]c2=O)c2c3occc3c(F)cc2n1Cc1cc(C(N)=O)ccc1F [Compound 199]	< 500	< 25	–	–
O=C(NS(=O)(=O)C1CC1)c1c(-c2ccc[nH]c2=O)c2c3occc3c(F)cc2n1Cc1ccccc1F [Compound 162]	< 500	< 25	–	–
CCOC(=O)c1c(-c2ccc[nH]c2=O)c2c3occc3c(F)cc2n1Cc1cc(C(N)=O)ccc1F [Compound 130]	< 500	25 to 100	–	–
O=C(NS(=O)(=O)C1CC1)c1c(-c2ccc[nH]c2=O)c2c3c(ccc2n1Cc1cc(F)ccc1F)CCO3 [Compound 164]	< 500	< 25	–	–
CS(=O)(=O)NC(=O)c1c(-c2ccc[nH]c2=O)c2c3c(c(F)cc2n1Cc1csc(C(N)=O)c1)CCO3 [Compound 167]	< 500	< 25	–	–
C[C@@H]1COc2c1ccc1c2c(-c2ccc[nH]c2=O)c(C(=O)NS(=O)(=O)C2CC2)n1Cc1cc(F)ccc1F [Compound 173]	< 500	< 25	–	–

— US8557848B2, “4,5-ring annulated indole derivatives for treating or preventing of HCV and related viral infections” (Merck Sharp & Dohme Corp., priority 2006, dated 2013)
